Test results from patent US7973072B2, “Substituted benzo-condensed cyclohexanone derivatives and the use thereof for medicament production” (Gruenenthal GmbH, priority 2005, dated 2011).

How the values were obtained:
[1] = biological target: T1, human vanilloid receptor 1 (VR1) (Homo sapiens, UniProt Q8NER1); test: FLIPR Ca2+ functional study on human vanilloid receptor 1 (CHO K1 cells transfected with human VR1); type: cell-based; settings: for inhibition at 10 µM: CHO-K1, test compound 10 μM, suppression of Ca2+ current after 100 nM capsaicin, relative to maximum inhibition with 10 μM capsaicin (CP), read-out: VR1 (human) (% inhibition compared to 10 μM CP); for EC50: agonistic action
T1 construct: expressed in transfected cells; host or cells: CHO K1 cells (ECACC), stably transfected
T1 sequence (Q8NER1 whole entry): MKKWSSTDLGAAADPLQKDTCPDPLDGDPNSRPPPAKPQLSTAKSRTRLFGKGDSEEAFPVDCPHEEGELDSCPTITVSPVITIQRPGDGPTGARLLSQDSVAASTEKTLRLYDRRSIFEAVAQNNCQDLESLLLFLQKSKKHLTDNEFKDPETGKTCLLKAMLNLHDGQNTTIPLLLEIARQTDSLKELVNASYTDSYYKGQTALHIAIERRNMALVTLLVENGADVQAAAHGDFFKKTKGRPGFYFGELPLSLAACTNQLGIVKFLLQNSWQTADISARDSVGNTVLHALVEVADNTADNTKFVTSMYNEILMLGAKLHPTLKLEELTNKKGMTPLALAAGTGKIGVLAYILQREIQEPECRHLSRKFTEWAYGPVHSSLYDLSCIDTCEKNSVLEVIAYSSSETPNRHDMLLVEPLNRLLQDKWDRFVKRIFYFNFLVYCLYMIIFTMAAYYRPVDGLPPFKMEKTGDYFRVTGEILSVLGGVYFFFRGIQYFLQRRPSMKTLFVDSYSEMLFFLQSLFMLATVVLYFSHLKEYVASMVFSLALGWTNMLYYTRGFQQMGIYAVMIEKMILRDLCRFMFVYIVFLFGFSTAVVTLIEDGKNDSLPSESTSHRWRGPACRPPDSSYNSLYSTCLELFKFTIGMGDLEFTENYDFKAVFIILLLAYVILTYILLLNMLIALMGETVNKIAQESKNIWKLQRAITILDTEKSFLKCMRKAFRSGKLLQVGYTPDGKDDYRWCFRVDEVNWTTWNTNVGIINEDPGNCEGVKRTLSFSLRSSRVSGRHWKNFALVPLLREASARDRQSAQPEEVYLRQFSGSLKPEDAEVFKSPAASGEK
Method: Chinese hamster ovary cells (CHO K1 cells, European Collection of Cell Cultures (ECACC), England) are transfected stably with the human vanilloid receptor 1 (VR1) gene or the vanilloid receptor 1 (VR1) gene of the rat. For functional studies, these cells are plated out onto poly-D-lysine-coated black 96-well plates with a clear bottom (BD Biosciences, Heidelberg, Germany) in a density of 25 000 cells/well. The cells are incubated overnight at 37° C. and 5% CO2 in culture medium (Ham's Nutrient Mixture F12, Gibco Invitrogen GmbH, Karlsruhe, Germany) with 10% by volume of FBS (fetal bovine serum, Gibco Invitrogen GmbH, Karlsruhe, Germany), and 18 μg/ml of L-proline (Gibco Invitrogen GmbH, Karlsruhe, Germany). The next day, the cells are laden with 2 μM Fluo-4 and 0.01% by volume of Pluronic F127 (Molecular Probes Europe BV, Leiden, The Netherlands) in HBSS buffer (Hank's buffered saline solution, Gibco Invitrogen GmbH, Karlsruhe, Germany) at 37° C. for 30 min. Subsequently, the plates are washed 3 times with HBSS buffer and, after a further incubation of 15 minutes at room temperature, used for Ca^2+ measurement in the FLIPR assay. The Ca^2+-dependent fluorescence is measured before and after addition of substances λex=488 nm, λem=540 nm). The quantification is effected by measuring the highest fluorescence intensity (FC, fluorescence counts) over the time.
The FLIPR protocol consists of 2 substance additions. First, the compounds to be tested (10 μM) are pipetted onto the cells obtained according to Ia or Ib and the Ca^2+ current is compared with the control (capsaicin 10 μM). This gives rise to the result in % activation based on the Ca^2+ signal after addition of 10 μM capsaicin (CP). After incubation for 5 minutes, 100 nM capsaicin is applied and the current of Ca^2+ is likewise determined.
Desensitizing agonists and antagonists lead to a suppression in the Ca^2+ current. % inhibition is calculated compared to the maximum achievable inhibition with 10 μM capsaicin.
Triple determinations (n=3) are performed and they are repeated in at least 3 independent experiments (N=4).

[2] = biological target: T2, vanilloid receptor 1 (VR1/TRPV1) of the rat (Rattus norvegicus, UniProt O35433); test: FLIPR Ca2+ functional study on rat vanilloid receptor 1 (rat dorsal root ganglia cells or CHO K1 cells transfected with rat VR1); type: cell-based; settings: for activation at 10 µM / inhibition at 10 µM: CHO-K1, test compound 10 μM; for activation at 10 µM: % activation based on Ca2+ signal after 10 μM capsaicin (CP), read-out: VR1 (rat) (% stimulation compared to 10 μM CP); for inhibition at 10 µM: suppression of Ca2+ current after 100 nM capsaicin, relative to maximum inhibition with 10 μM capsaicin (CP), read-out: VR1 (rat) (% inhibition compared to 10 μM CP); for EC50: agonistic action
T2 construct: host or cells: rat dorsal root ganglia primary cells (Ia) or CHO K1 cells stably transfected with the rat VR1 gene (Ib)
T2 sequence (O35433 whole entry): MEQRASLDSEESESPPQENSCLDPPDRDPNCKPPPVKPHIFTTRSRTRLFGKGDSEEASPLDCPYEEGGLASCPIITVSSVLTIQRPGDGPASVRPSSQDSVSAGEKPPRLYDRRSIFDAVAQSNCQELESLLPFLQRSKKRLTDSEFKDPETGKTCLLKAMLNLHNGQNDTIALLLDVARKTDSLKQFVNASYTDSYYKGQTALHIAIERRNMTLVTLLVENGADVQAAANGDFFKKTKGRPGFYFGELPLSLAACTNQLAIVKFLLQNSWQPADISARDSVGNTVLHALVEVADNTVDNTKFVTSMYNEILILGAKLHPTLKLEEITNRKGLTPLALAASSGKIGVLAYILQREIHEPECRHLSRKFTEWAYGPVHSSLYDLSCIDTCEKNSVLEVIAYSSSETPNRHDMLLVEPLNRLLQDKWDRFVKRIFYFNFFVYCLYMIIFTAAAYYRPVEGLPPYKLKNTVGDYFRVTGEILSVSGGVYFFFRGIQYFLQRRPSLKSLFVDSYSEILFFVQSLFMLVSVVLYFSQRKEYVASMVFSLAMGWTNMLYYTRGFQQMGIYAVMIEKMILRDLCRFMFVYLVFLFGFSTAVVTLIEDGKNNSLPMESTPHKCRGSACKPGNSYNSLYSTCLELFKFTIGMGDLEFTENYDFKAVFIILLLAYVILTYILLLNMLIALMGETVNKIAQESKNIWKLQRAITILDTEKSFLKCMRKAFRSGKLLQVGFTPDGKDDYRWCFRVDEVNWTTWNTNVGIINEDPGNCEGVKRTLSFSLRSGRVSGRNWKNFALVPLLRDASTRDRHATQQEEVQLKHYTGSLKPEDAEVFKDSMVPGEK
Method: The agonistic or antagonistic action of the substances to be studied on the vanilloid receptor 1 (VR1/TRPV1) of the rat species can be determined with the following assay. In this assay, the Ca^2+ current through the receptor channel is quantified with the aid of a Ca^2+-sensitive dye (Fluo-4 type, Molecular Probes Europe BV, Leiden the Netherlands) in a fluorescent imaging plate reader (FLIPR, Molecular Devices, Sunnyvale, USA).
Complete medium: 50 ml HAMS F12 Nutrient Mixture (Gibco Invitrogen GmbH, Karlsruhe, Germany) with
10% by volume of FCS (fetal calf serum, Gibco Invitrogen GmbH, Karlsruhe, Germany, heat-inactivated);
2 mM L-glutamine (Sigma, Munich, Germany);
1% by weight of AA solution (antibiotic/antimycotic solution, PAA, Pasching, Austria) and 25 ng/ml of NGF medium (2.5 S, Gibco Invitrogen GmbH, Karlsruhe, Germany)
Cell culture plate: poly-D-lysine-coated, black 96-hole plates with a clear bottom (96 well black/clear plate, BD Biosciences, Heidelberg, Germany) are additionally coated with laminin (Gibco Invitrogen GmbH, Karlsruhe, Germany) by diluting laminin to a concentration of 100 μg/ml with PBS (Ca—Mg-free PBS, Gibco Invitrogen GmbH, Karlsruhe, Germany). Aliquots having a concentration of 100 μg/ml of laminin are withdrawn and stored at −20° C. The aliquots are diluted with PBS in a ratio of 1:10 to 10 μg/ml of laminin and in each case 50 μl of the solution are pipetted into a well of the cell culture plate. The cell culture plates are incubated at 37° C. for at least two hours, the supernatant solution is removed by suction and the wells are each washed twice with PBS. The coated cell culture plates are stored with supernatant PBS which is not removed until directly before the application of the cells.
The spinal column is removed from beheaded rats and placed directly into cold HBSS buffer (Hank's buffered saline solution, Gibco Invitrogen GmbH, Karlsruhe, Germany), i.e. placed in an ice bath, which has been admixed with 1% by volume of an AA solution (antibiotic/antimycotic solution, PAA, Pasching, Austria). The spinal column is severed longitudinally and removed from the spinal canal together with fasciae. Subsequently, the dorsal root ganglia (DRGs) are removed and in turn stored in cold HBSS buffer admixed with 1% by volume of an […]. The DRGs freed completely of blood residues and spinal nerves are in each case transferred to 500 μl of cold type 2 collagenase (PAA, Pasching, Austria) and incubated at 37° C. for 35 minutes. After addition of 2.5% by volume of trypsin (PAA, Pasching, Austria), incubation is continued at 37° C. for a further 10 minutes. After complete incubation, the enzyme solution is cautiously pipetted off and the remaining DRGs are each admixed with 500 μl of complete medium.
The DRGs are each suspended repeatedly, drawn through cannulas No. 1, No. 12 and No. 16 by means of a syringe and transferred to 50 ml Falcon tubes which are made up to 15 ml with complete medium. The contents of each Falcon tube are in each case filtered through a 70 μm Falcon filter insert and centrifuged at 1200 revolutions and room temperature for 10 minutes. The resulting pellet is in each case taken up in 250 μl of complete medium and the cell count is determined.
The number of cells in the suspension is adjusted to 3 times 10^5 per ml and in each case 150 μl of this suspension are added to one well of the cell culture plates coated as described above. In the incubator, the plates are left to stand at 37° C., 5% by volume of CO2 and 95% relative air humidity for two to three days.
Subsequently, the cells are laden with 2 μM Fluo-4 and 0.01% by volume of Pluronic F127 (Molecular Probes Europe BV, Leiden, the Netherlands) in HBSS buffer (Hank's buffered saline solution, Gibco Invitrogen GmbH, Karlsruhe, Germany) at 37° C. for 30 min, washed 3× with HBSS buffer and, after a further incubation of 15 minutes, used in the FLIPR assay at room temperature for Ca^2+ measurement. […]

| melting point [°C] | inhibition at 10 µM [1] [%] | EC50 ([1]; FLIPR) [µM] | activation at 10 µM [2] [%] | inhibition at 10 µM [2] [%] | EC50 ([2]; FLIPR) [µM] | IC50 ([1]; FLIPR, antagonistic action) [µM] | IC50 ([2]; FLIPR, antagonistic action) [µM] | SMILES |
| --- | --- | --- | --- | --- | --- | --- | --- | --- |
| 65 to 73 | 59.2 | 13.4 | 11.8 | 61.5 | 20.3 | – | – | Cc1ccc2c(c1)[S+]([O-])CC(COC(=O)Nc1ccccc1)(COC(=O)Nc1ccccc1)C2=O (stereo not shown) [Example Compound 47, 3,3-bis(phenylcarbamoyloxymethyl)-7-methyl-1-oxo-1λ^4-thiochroman-4-one] |
| 58 to 63 | 73.2 | 3.05 | 37.8 | 41.1 | 9.95 | – | – | COc1ccc(NC(=O)OCC2(COC(=O)Nc3ccc(OC)cc3)CSc3ccccc3C2=O)cc1 [Example Compound 42, 3,3-bis(4-methoxyphenylcarbamoyloxymethyl)thiochroman-4-one] |

The remaining lines, values behind:

| SMILES | melting point [°C] | inhibition at 10 µM [1] [%] | EC50 ([1]; FLIPR) [µM] | activation at 10 µM [2] [%] | inhibition at 10 µM [2] [%] | EC50 ([2]; FLIPR) [µM] | IC50 ([1]; FLIPR, antagonistic action) [µM] | IC50 ([2]; FLIPR, antagonistic action) [µM] |
| --- | --- | --- | --- | --- | --- | --- | --- | --- |
| O=C(Nc1ccccc1)OCC1(COC(=O)Nc2ccccc2)CS(=O)(=O)c2ccccc2C1=O [Example Compound 43, 3,3-bis(phenylcarbamoyloxymethyl)-1,1-dioxo-1λ^6-thiochroman-4-one] | 72 to 78 | 9.79 | 9 | 48.5 | 83.9 | 25.4 | – | – |
| CC(C)(C)c1ccc(NC(=O)OCC2(COC(=O)Nc3ccc(C(C)(C)C)cc3)CSc3ccccc3C2=O)cc1 [Example Compound 50, 3,3-bis(4-tert-butylphenylcarbamoyloxymethyl)thiochroman-4-one] | 78 to 85 | 0 | – | 0 | 99.9 | – | > 20 | 5.7 |
| Cc1ccc2c(c1)S(=O)(=O)CC(COC(=O)Nc1ccccc1)(COC(=O)Nc1ccccc1)C2=O [Example Compound 48, 3,3-bis(phenylcarbamoyloxymethyl)-7-methyl-1,1-dioxo-1λ^6-thiochroman-4-one] | 85 to 95 | 81.1 | 1.85 | 64.9 | 88.8 | 3.4 | – | – |
| CC(C)(C)c1ccccc1NC(=O)OCC1(COC(=O)Nc2ccccc2C(C)(C)C)CSc2ccccc2C1=O [Example Compound 51, 3,3-bis(2-tert-butylphenylcarbamoyloxymethyl)thiochroman-4-one] | 62 to 68 | – | – | – | – | – | – | – |
